Measurements from ChEMBL document CHEMBL3758083, “Design and discovery of 4-anilinoquinazoline-acylamino derivatives as EGFR and VEGFR-2 dual TK inhibitors” (Eur J Med Chem, 2016).

Legend:
MCF7 = assay: Antiproliferative activity against human MCF7 cells after 48 hrs by MTT assay; assay type: functional, cell-based; conditions: MCF7, 48 h
[1] = molecular target: Vascular endothelial growth factor receptor 2 (Homo sapiens, UniProt P35968); assay: Inhibition of human VEGFR-2 preincubated for 10 mins followed by addition of FAM-labeled peptide and incubated for 10 mins by Caliper motility shift assay
Sequence of Vascular endothelial growth factor receptor 2 (P35968 whole entry): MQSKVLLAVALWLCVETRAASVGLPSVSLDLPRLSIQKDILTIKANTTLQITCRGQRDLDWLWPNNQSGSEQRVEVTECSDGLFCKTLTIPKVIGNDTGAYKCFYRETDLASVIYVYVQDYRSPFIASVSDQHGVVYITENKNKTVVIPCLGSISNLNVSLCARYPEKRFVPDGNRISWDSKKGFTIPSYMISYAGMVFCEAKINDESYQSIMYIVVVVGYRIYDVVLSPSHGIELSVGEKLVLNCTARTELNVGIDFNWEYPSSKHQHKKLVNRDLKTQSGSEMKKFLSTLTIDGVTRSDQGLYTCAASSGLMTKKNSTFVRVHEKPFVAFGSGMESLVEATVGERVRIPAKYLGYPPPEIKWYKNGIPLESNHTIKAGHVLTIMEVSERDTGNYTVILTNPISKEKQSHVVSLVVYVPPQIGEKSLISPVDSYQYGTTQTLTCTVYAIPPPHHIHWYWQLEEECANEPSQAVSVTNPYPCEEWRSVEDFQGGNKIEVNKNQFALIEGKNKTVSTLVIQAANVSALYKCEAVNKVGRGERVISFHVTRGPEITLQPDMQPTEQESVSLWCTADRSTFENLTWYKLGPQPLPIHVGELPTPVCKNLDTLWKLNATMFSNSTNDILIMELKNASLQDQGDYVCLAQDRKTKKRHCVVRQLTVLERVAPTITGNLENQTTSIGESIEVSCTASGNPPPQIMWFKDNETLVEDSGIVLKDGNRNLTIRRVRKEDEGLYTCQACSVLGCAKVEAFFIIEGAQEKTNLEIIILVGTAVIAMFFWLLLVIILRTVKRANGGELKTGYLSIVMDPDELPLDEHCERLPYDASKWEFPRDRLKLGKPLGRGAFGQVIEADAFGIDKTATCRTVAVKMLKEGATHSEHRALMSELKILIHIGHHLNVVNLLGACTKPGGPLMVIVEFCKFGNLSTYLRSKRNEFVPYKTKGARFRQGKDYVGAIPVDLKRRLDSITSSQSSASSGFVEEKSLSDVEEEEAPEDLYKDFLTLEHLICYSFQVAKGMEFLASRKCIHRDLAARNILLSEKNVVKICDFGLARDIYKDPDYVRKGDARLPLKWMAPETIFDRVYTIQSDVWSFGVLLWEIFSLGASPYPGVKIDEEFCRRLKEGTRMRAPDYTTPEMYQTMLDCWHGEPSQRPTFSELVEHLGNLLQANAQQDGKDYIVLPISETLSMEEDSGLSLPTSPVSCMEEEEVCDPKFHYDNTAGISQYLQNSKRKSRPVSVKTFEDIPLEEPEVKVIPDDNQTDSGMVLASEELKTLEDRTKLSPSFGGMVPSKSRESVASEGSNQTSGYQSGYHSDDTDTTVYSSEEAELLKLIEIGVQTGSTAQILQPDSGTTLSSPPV

[2] = molecular target: Epidermal growth factor receptor (Homo sapiens, UniProt P00533); assay: Inhibition of human EGFR preincubated for 10 mins followed by addition of FAM-labeled peptide and incubated for 10 mins by Caliper motility shift assay
Sequence of Epidermal growth factor receptor (P00533 whole entry): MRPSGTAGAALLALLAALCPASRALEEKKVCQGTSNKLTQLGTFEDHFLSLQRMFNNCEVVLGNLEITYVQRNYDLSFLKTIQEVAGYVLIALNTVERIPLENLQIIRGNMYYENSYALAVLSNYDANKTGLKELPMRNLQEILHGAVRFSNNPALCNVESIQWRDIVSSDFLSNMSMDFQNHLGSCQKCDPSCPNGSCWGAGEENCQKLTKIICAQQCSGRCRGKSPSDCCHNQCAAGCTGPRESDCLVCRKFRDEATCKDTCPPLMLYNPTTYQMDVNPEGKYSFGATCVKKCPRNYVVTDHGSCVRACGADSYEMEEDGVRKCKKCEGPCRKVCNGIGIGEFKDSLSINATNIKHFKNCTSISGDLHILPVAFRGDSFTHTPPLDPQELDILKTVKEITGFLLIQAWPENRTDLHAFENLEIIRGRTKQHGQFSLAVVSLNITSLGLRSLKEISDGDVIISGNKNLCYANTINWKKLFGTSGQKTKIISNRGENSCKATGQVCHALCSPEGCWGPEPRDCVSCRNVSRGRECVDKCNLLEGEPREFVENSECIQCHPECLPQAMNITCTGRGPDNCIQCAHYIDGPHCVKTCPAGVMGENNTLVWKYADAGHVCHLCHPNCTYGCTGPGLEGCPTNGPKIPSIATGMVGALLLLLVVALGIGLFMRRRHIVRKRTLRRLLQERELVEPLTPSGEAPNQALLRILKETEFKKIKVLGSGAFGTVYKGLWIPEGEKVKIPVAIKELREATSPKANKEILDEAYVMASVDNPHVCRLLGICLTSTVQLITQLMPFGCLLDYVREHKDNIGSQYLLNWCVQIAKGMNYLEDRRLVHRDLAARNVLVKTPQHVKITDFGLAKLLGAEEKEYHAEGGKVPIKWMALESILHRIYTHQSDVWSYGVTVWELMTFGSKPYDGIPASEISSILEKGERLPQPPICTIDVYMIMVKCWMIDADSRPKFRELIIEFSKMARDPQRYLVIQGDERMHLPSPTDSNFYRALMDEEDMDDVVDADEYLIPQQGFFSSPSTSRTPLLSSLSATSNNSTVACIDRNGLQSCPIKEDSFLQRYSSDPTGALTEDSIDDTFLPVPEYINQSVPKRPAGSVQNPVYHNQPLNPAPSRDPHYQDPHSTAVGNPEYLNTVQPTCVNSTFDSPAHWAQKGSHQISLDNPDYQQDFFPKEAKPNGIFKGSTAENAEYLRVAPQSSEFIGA

NCI-H460 = assay: Antiproliferative activity against human NCI-H460 cells after 48 hrs by MTT assay; assay type: functional, cell-based; conditions: NCI-H460, 48 h
HT-29 = assay: Antiproliferative activity against human HT-29 cells after 48 hrs by MTT assay; assay type: functional, cell-based; conditions: HT-29, 48 h

Row | Structure (SMILES) | IC50 (MCF7) | IC50 [1] | IC50 [2] | IC50 (NCI-H460) | IC50 (HT-29)
1 | COc1cc2c(Nc3ccc(NC(=O)c4ccc(Cl)cc4)cc3)ncnc2cc1OCc1ccccc1 | 56.4 µM | > 10 µM | > 10 µM | 21.1 µM | > 100 µM
2 | COc1cc2c(Nc3ccc(NC(=O)c4cccc(Cl)c4)cc3)ncnc2cc1OCCCN1CCN(C)CC1 | 4.41 µM | 1.81 µM | 0.15 µM | 12 µM | 5.27 µM
3 | COc1cc2c(Nc3ccc(NC(=O)c4ccc(C)cc4)cc3)ncnc2cc1OCc1ccccc1 | > 100 µM | > 10 µM | > 10 µM | 46.1 µM | > 100 µM
4 | COc1cc2c(Nc3ccc(NC(=O)c4cccc(Cl)c4)cc3)ncnc2cc1OCCCN1CCOCC1 | 7.8 µM | 2.99 µM | 0.23 µM | – | 21.3 µM
5 | COc1cc2c(Nc3ccc(NC(=O)c4ccccc4)cc3)ncnc2cc1OCCCN1CCN(C)CC1 | 39 µM | 0.56 µM | – | 27.2 µM | 31.3 µM
6 | COc1cc2c(Nc3ccc(NC(=O)c4ccccc4Cl)cc3)ncnc2cc1OCCCN1CCN(C)CC1 | 15.4 µM | 1.71 µM | 0.02 µM | 36.2 µM | 23.2 µM
7 | COc1cc2c(Nc3ccc(NC(=O)c4ccccc4Cl)cc3)ncnc2cc1OCc1ccccc1 | 78.2 µM | > 10 µM | 0.73 µM | 28.2 µM | > 100 µM
8 | COc1cc2c(Nc3ccc(NC(=O)c4cccc(Cl)c4)cc3)ncnc2cc1OCc1ccccc1 | > 100 µM | > 10 µM | > 10 µM | 12.5 µM | –
9 | COc1cc2c(Nc3ccc(NC(=O)c4ccccc4)cc3)ncnc2cc1OCc1ccccc1 | > 100 µM | > 10 µM | > 10 µM | 62.4 µM | 7.37 µM
10 | COc1cc2c(Nc3ccc(NC(=O)c4ccc(Cl)cc4)cc3)ncnc2cc1OCCCN1CCOCC1 | 40.2 µM | 2.62 µM | 1.35 µM | 8 µM | 9.39 µM
11 | COc1ccc(C(=O)Nc2ccc(Nc3ncnc4cc(OCCCN5CCN(C)CC5)c(OC)cc34)cc2)cc1 | 24.6 µM | 2.02 µM | 1.11 µM | 9.49 µM | 22.1 µM
12 | COc1ccc(C(=O)Nc2ccc(Nc3ncnc4cc(OCc5ccccc5)c(OC)cc34)cc2)cc1 | – | > 10 µM | > 10 µM | 16.1 µM | > 100 µM

Results, then the compound that gave them:

Row | IC50 (MCF7) | IC50 [1] | IC50 [2] | IC50 (NCI-H460) | IC50 (HT-29) | Structure (SMILES)
13 | – | 2.48 µM | > 10 µM | – | 6.85 µM | COc1cc2c(Nc3ccc(NC(=O)c4ccc(C)cc4)cc3)ncnc2cc1OCCN1CCCCC1
14 | 24.9 µM | 0.87 µM | 0.69 µM | 11.9 µM | 17.1 µM | COc1cc2c(Nc3ccc(NC(=O)c4ccc(C)cc4)cc3)ncnc2cc1OCCCN1CCN(C)CC1
15 | 0.1 µM | 4.19 µM | > 10 µM | 16 µM | 5.12 µM | COc1cc2c(Nc3ccc(NC(=O)c4ccc(Cl)cc4)cc3)ncnc2cc1OCCN1CCCCC1
16 | 37.6 µM | 2 µM | 0.76 µM | – | 89.1 µM | COc1cc2c(Nc3ccc(NC(=O)c4ccc(C)cc4)cc3)ncnc2cc1OCCCN1CCOCC1
17 | 36 µM | 4.72 µM | 4.61 µM | 30 µM | 26.1 µM | COc1cc2c(Nc3ccc(NC(=O)c4ccccc4)cc3)ncnc2cc1OCCN1CCCCC1
18 | 4.34 µM | 1.99 µM | 0.3 µM | – | 7.94 µM | COc1cc2c(Nc3ccc(NC(=O)c4cccc(Cl)c4)cc3)ncnc2cc1OCCN1CCCCC1
19 | 53.2 µM | 1.86 µM | 1.33 µM | 26 µM | 5.54 µM | COc1cc2c(Nc3ccc(NC(=O)c4ccc(Cl)cc4)cc3)ncnc2cc1OCCCN1CCN(C)CC1
